Experimental data published in patent publication US6028195A, “Piperazine derivatives and process for the preparation thereof” (Samjin Pharmaceutical Co., Ltd., priority 1996, dated 2000).
In brackets after ≈: the same amount, converted by molar mass. Like-named read-outs stand apart in the source and are kept apart here.

Key:
[1] = Acute toxicity test (LD50), Litchfield-Wilcoxon method; settings: mouse, in vivo, ip, male ICR mice, 14 days
Description: Acute toxicity test (LD50): Litchfield-Wilcoxon method.
6 weeks old ICR mice(male 30±2.0 g) were fed freely with solid feed and water at room temperature, 23±1° C. and at humidity 60±5%. Sample drugs were injected into the abdominal cavities of mice, while each group comprises 6 mice. Observed during 14 days, external appearances and life or dead were recorded, and then, visible pathogenies were observed from dead animals by dissection. LD50 value was calculated by Litchfiled-wilcoxon method.

[2] = test system: A549 (human non-small lung cell); experiment: SRB assay, in vitro antitumor effect against A549; type: cell-based; settings: Homo sapiens; A549, 48 hours; read-out: ED50 (the source's name)
Description: (§1) In vitro antitumor effect against human tumor cell lines.
(§2) b. 5×10^3 ~2×10^4 cells were added into each well of 96-well plate and cultured in 5% CO2 incubator, at 37° C., for 24 hours.
(§3) c. Each sample drug was dissolved in a little DMSO and diluted with the used medium to a prescribed concentration for experiments, wherein the final concentration of DMSO was controlled below 0.5%.
(§4) d. Medium of each well cultured for 24 hours as above b. was removed by aspiration. Each 200 μl of drug samples prepared in c. was added into each well and the wells were cultured for 48 hours. Tz(time zero) plates were collected at the point of time drugs were added.
(§5) e. According to the SRB assay method, cell fixing with TCA, staining with 0.4% SRB solution, washing with 1% acetic acid and elution of dye with 10 mM Tris solution were carried out on Tz plates and culture-ended plates, and then, OD values were measured at 520 nm.
(§6) a. Time zero(Tz) value was determined with measuring the SRB protein value at the point of time drugs were added.
(§7) b. Control value(C) was determined with the OD value of an well untreated with drug.
(§8) c. Drug-treated test value(T) was determined with the OD value of drug-treated well.
(§9) d. Effects of drugs were estimated with growth stimulation, net growth inhibition, net killing etc. calculated from Tz, C and T.
(§10) e. If T≥Tz, cellular response function was calculated by 100×(T-Tz)/(C-Tz), and if T<Tz, by 100×(T-Tz)/Tz.

[3] = test system: XF 498 (human CNS); experiment: SRB assay, in vitro antitumor effect against XF 498; type: cell-based; settings: Homo sapiens, XF498; XF-498, 48 hours; read-out: ED50 (the source's name)
Description: as §1, §2, §3, §4, §5, §6, §7, §8, §9, §10

[4] = test system: SKMEL-2 (human melanoma); experiment: SRB assay, in vitro antitumor effect against SKMEL-2; type: cell-based; settings: Homo sapiens; SK-MEL-2, 48 hours; read-out: ED50 (the source's name)
Description: as §1, §2, §3, §4, §5, §6, §7, §8, §9, §10

[5] = test system: mouse leukemia P388 cells; experiment: In vivo antitumor effects against mouse leukemia P388 cells in BDF1 mice; settings: P388, ip, abdominal cavity
Description: In vivo antitumor effects against mouse leukemia P388 cells.
1) Leukemia P388 cells being transfer-cultured successively in DBA/2 mouse, were grafted into each mouse of a group comprising 8 mice of 6 week old BDF1 mouse with the dose of 1×10^6 cells/0.1 ml. […]
3) With observation everyday, survival times of tested mice were measured. Antitumor activities was determined in such a manner that the increasing ratio(T/C%) of average survival days of drug-treated groups compared with the control group was calculated using the mean survival times of each tested groups.

[6] = test system: SKOV-3 (human ovarian); experiment: SRB assay, in vitro antitumor effect against SKOV-3; type: cell-based; settings: Homo sapiens; SK-OV-3, 48 hours; read-out: ED50 (the source's name)
Description: as §1, §2, §3, §4, §5, §6, §7, §8, §9, §10

[7] = test system: HCT-15 (human colon); experiment: SRB assay, in vitro antitumor effect against HCT-15; type: cell-based; settings: Homo sapiens; HCT 15, 48 hours; read-out: ED50 (the source's name)
Description: as §1, §2, §3, §4, §5, §6, §7, §8, §9, §10

[8] = on days 1, 4, 8, read-out: T/C(%)
[9] = nine everyday, read-out: T/C(%)
[10] = on days 1, 5, 9, read-out: T/C(%)

Row | IC50 [2] [µg/mL] | IC50 [3] [µg/mL] | IC50 [4] [µg/mL] | IC50 [6] [µg/mL] | IC50 [7] [µg/mL] | Compound | LD50 at 336 h [1] [mg/kg] | further results
1 |  |  |  |  |  | C=C(C)c1ccccc1N1CCN(C(=O)Nc2cc(C)c(C)cc2OC)CC1 [Example 187, 1-[(4,5-Dimethyl-2-methoxyphenyl)aminocarbonyl]-4-(2-isopropenylphenyl)piperazine] | 418 | 
2 | 0.000645 (≈ 0.00161 µM) | 0.000572 (≈ 0.00143 µM) | 0.00323 (≈ 0.00809 µM) | 0.00372 (≈ 0.00931 µM) | 0.00181 (≈ 0.00453 µM) | COc1cc(OC)cc(N2CCN(C(=O)Nc3cc(C)c(C)cc3OC)CC2)c1 [Example 171, 1-[(4,5-Dimethyl-2-methoxyphenyl)aminocarbonyl]-4-(3,5-dimethoxyphenyl)piperazine] |  | response vs control in vivo at 25 mg/kg [5, 8]: 100%; response vs control in vivo at 50 mg/kg [5, 8]: 100%; response vs control in vivo at 100 mg/kg [5, 8]: 140%
3 |  |  |  |  |  | CCc1nc(OC)c(NC(=O)N2CCN(c3cc(OC)cc(OC)c3)CC2)cc1C [Example 12, 1-[(6-Ethyl-2-methoxy-5-methylpyridin-3-yl)aminocarbonyl]-4-(3,5-dimethoxyphenyl)piperazine] | 165 | 
4 |  |  |  |  |  | COc1cc(C)c(C)cc1NC(=O)N1CCN(c2ccccc2)CC1 [Example 170, 1-[(4,5-Dimethyl-2-methoxyphenyl)aminocarbonyl]-4-phenylpiperzine] | 573 | 
5 |  |  |  |  |  | CCc1cc(N(C)C(=O)N2CCN(c3cc(C)cc(C)c3)CC2)c(OC)nc1C [Example 144, 1-[N-(5-Ethyl-2-methoxy-6-methylpyridin-3-yl)-N-methylaminocarbonyl]-4-(3,5-dimethylphenyl)piperazine] |  | response vs control in vivo at 50 mg/kg [5, 9]: 110%; response vs control in vivo at 100 mg/kg [5, 9]: 110%; response vs control in vivo at 200 mg/kg [5, 9]: 125%
6 |  |  |  |  |  | CCCc1cc(NC(=O)N2CCN(c3cc(OC)cc(OC)c3)CC2)c(OC)nc1C [Example 8, 1-[(2-Methoxy-6-methyl-5-propylpyridin-3-yl)aminocarbonyl]-4-(3,5-dimethoxyphenyl)piperazine] | 707 | response vs control in vivo at 100 mg/kg [5, 10]: 104%; response vs control in vivo at 200 mg/kg [5, 10]: 141%
7 |  |  |  |  |  | COc1cc(C)c(C)cc1NC(=O)N1CCN(c2cccc(OC(C)=O)c2)CC1 [Example 182, 1-[(4,5-Dimethyl-2-methoxyphenyl)aminocarbonyl]-4-(3-acetoxyphenyl)piperazine] | 348 | 
8 |  |  |  |  |  | COc1cc(C)c(C)cc1NC(=O)N1CCN(c2cc(-c3ccccc3)ccc2OC)CC1 [Example 186, 1-[(4,5-Dimethyl-2-methoxyphenyl)aminocarbonyl]-4-(2-methoxy-5-phenylphenyl)piperazine] | > 2000 | 
9 | 0.52 (≈ 1.28 µM) | 0.81 (≈ 1.99 µM) | 0.97 (≈ 2.39 µM) | 1.06 (≈ 2.61 µM) | 0.69 (≈ 1.7 µM) | COc1nc2ccccc2cc1NC(=S)N1CCN(c2cc(C)cc(C)c2)CC1 [Example 110, 1[(2-Methoxyquinolin-3-yl)aminothiocarbonyl]-4-(3,5-dimethylphenyl)piperazine] |  | 
10 | 0.54 (≈ 1.37 µM) | 0.49 (≈ 1.24 µM) | 0.27 (≈ 0.683 µM) | 0.56 (≈ 1.42 µM) | 0.33 (≈ 0.834 µM) | COc1cc(C)c(C)cc1NC(=O)N1CCN(c2c(C)c(C)cc(C)c2C)CC1 [Example 174, 1-[(4,5-Dimethyl-2-methoxyphenyl)aminocarbonyl]-4-(2,3,5,6-tetramethylphenyl)piperazine] |  | 
11 |  |  |  |  |  | CCc1nc(OC)c(NC(=O)N2CCN(c3cc(C)cc(C)c3)CC2)cc1C [Example 13, 1-[(6-Ethyl-2-methoxy-5-methylpyridin-3-yl)aminocarbonyl]-4-(3,5-dimethylphenyl)piperazine] | 285 | 
12 | 0.05 (≈ 0.127 µM) | 0.21 (≈ 0.532 µM) | 0.07 (≈ 0.177 µM) | 0.1 (≈ 0.253 µM) | 0.17 (≈ 0.431 µM) | C=Cc1cc(N(C)C(=O)N2CCN(c3cc(C)cc(C)c3)CC2)c(OC)nc1C [Example 159, 1-[N-(2-Methoxy-6-methyl-5-vinylpyridin-3-yl)-N-methylaminocarbonyl]-4-(3,5-dimethylphenyl)piperazine] |  | 
13 | 0.007 (≈ 0.0175 µM) | 0.94 (≈ 2.35 µM) | 0.007 (≈ 0.0175 µM) | 0.022 (≈ 0.0549 µM) | 0.093 (≈ 0.232 µM) | CCc1cc(NC(=O)N2CCN(c3ccccc3SC)CC2)c(OC)nc1C [Example 4, 1-[(5-Ethyl-6-methyl-2-methoxypyridin-3-yl)aminocarbonyl]-4-(2-methylthiophenyl)piperazine] |  | 
14 | 0.21 (≈ 0.49 µM) | 0.14 (≈ 0.327 µM) | 0.08 (≈ 0.187 µM) | 0.12 (≈ 0.28 µM) | 0.16 (≈ 0.373 µM) | COc1cc(OC)cc(N2CCN(C(=O)Nc3cc(C(C)=O)c(C)nc3OC)CC2)c1 [Example 46, 1-[(5-Acetyl-2-methoxy-6-methylpyridin-3-yl)amninocarbonyl]-4-(3,5-dimethoxyphenyl)piperazine] |  | 
15 | 0.056 (≈ 0.146 µM) | 0.06 (≈ 0.157 µM) | 0.102 (≈ 0.267 µM) | 0.092 (≈ 0.241 µM) | 0.066 (≈ 0.173 µM) | COc1nc(C)c(C)cc1N(C)C(=O)N1CCN(c2cc(C)cc(C)c2)CC1 [Example 135, 1-[N-(5,6-Dimethyl-2-methoxypyridin-3-yl)-N-methylaminocarbonyl]-4-(3,5-dimethylphenyl)piperazine] |  | response vs control in vivo at 25 mg/kg [5, 9]: 100%; response vs control in vivo at 50 mg/kg [5, 9]: 110%; response vs control in vivo at 100 mg/kg [5, 9]: 150%
16 |  |  |  |  |  | COc1cc(OC)cc(N2CCN(C(=O)N(C)c3cc4ccccc4nc3OC)CC2)c1 [Example 98, 1-[N-(2-Methoxyquinolin-3-yl)-N-methylaminocarbonyl]-4-(3,5-dimethoxyphenyl)piperazine] |  | response vs control in vivo at 25 mg/kg [5, 9]: 110%; response vs control in vivo at 50 mg/kg [5, 9]: 110%; response vs control in vivo at 100 mg/kg [5, 9]: 150%

Row | Compound | IC50 [2] [µg/mL] | IC50 [3] [µg/mL] | IC50 [4] [µg/mL] | IC50 [6] [µg/mL] | IC50 [7] [µg/mL] | LD50 at 336 h [1] [mg/kg] | further results
17 | CCCc1nc(OC)c(NC(=O)N2CCN(c3cc(OC)cc(OC)c3)CC2)cc1C [Example 15, 1-[(2-Methoxy-5-methyl-6-propylpyridin-3-yl)aminocarbonyl]-4-(3,5-dimethoxyphenyl)piperazine] | 0.002 (≈ 0.00467 µM) | 0.035 (≈ 0.0817 µM) | 0.052 (≈ 0.121 µM) | 0.05 (≈ 0.117 µM) | 0.038 (≈ 0.0887 µM) | 190 | response vs control in vivo at 10 mg/kg [5, 9]: 110%; response vs control in vivo at 25 mg/kg [5, 9]: 150%
18 | C=Cc1cc(NC(=O)N2CCN(c3cc(C)cc(C)c3)CC2)c(OC)nc1C [Example 74, 1-[(2-Methoxy-6-methyl-5-vinylpyridin-3-yl)aminocarbonyl]-4-(3,5-dimethylphenyl)piperazine] | 0.016 (≈ 0.0421 µM) | 0.026 (≈ 0.0683 µM) | 0.02 (≈ 0.0526 µM) | 0.0138 (≈ 0.0363 µM) | 0.021 (≈ 0.0552 µM) | 361 | response vs control in vivo at 10 mg/kg [5, 9]: 140%; response vs control in vivo at 25 mg/kg [5, 9]: 150%; response vs control in vivo at 50 mg/kg [5, 9]: 250%
19 | COc1ccc(C)c(N2CCN(C(=O)Nc3cc(C)c(C)cc3OC)CC2)c1 [Example 184, 1-[(4,5-Dimethyl-2-methoxyphenyl)aminocarbonyl]-4-(5-methoxy-2-methylphenyl)piperazine] | 0.28 (≈ 0.73 µM) | 0.12 (≈ 0.313 µM) | 0.17 (≈ 0.443 µM) | 0.34 (≈ 0.887 µM) | 0.2 (≈ 0.522 µM) | 309 | 
20 | CCCc1nc(OC)c(NC(=S)N2CCN(c3cccc(O)c3)CC2)cc1C [Example 28, 1-[(2-Methoxy-5-methyl-6-propylpyndin-3-yl)aminothiocarbonyl]-4-(3-hydroxyphenyl)piperazine] | 0.06 (≈ 0.15 µM) | 0.41 (≈ 1.02 µM) | 0.001 (≈ 0.0025 µM) | 0.07 (≈ 0.175 µM) | 0.05 (≈ 0.125 µM) | > 2000 | 
21 | COc1nc(C)c(C(C)O)cc1NC(=O)N1CCN(c2cc(C)cc(C)c2)CC1 (stereo not shown) [Example 57, 1-{[5-(1-Hydroxyethyl)-2-methoxy-6-methylpyridin-3-yl]aminocarbonyl}-4-(3,5-dimethylphenyl)piperazine] | 0.27 (≈ 0.678 µM) | 0.22 (≈ 0.552 µM) | 0.18 (≈ 0.452 µM) | 0.15 (≈ 0.376 µM) | 0.25 (≈ 0.627 µM) | 455 | 
